Article PMC3113977, “Structural characteristics and antiviral activity of multiple peptides derived from MDV glycoproteins B and H” (Virology Journal, 2011)
Where a SMILES comes first, the peptide text is derived from it.

How the values were obtained:
[1] = Gel filtration (GF) analysis of oligomeric state; type: physicochemical; details: for MW of polymer (GF peak molecular mass): Superdex G75, 20 mM Tris-HCl pH 8.0, estimated against protein standards; for Oligomeric state: aqueous solution, Superdex G75, 20 mM Tris-HCl pH 8.0, GF peak mass versus MS monomer mass
Experimental: Figure 5 GF results and structural analyses of five peptides. (top) GF analysis of peptides. The purified peptides were loaded onto the Superdex G75 column in a buffer solution of 20 mM Tris-HCl, pH 8.0. The peak molecular mass was estimated by comparison with the protein standards running on the same column. The clear peak of gHH1 occurred at about 12.1 kDa. This molecular mass matches the approximate sum of four molecules, indicating the formation of the homotetrameric structure. The peak of gHH2 occurred at about 7.2 kDa, indicating the formation of the homodimeric structure. The peak of gHH3 occurred at about 3.8 kDa, indicating the monomeric state. The peak of gHH5 occurred at about 9.1 kDa, indicating the formation of the homotrimeric structure. The peak of gBH1 occurred at about 10.7 kDa, indicating the formation of the homotrimeric structure. (bottom) Sequences and calculated oligomeric states of gHH1, gHH2, gHH3, gHH5, and gBH1 in aqueous solution. TEXT PRINTED IN THE PICTURE: gHH1: MW of monomer: 3184 Da; MW of polymer: 12.1 kDa; Oligomeric state: 4 (tetramer) | gHH2: MW of monomer: 3623 Da; MW of polymer: 7.2 kDa; Oligomeric state: 2 (dimer) | gHH3: MW of monomer: 3795 Da; MW of polymer: 3.8 kDa; Oligomeric state: 1 (monomer) | gHH5: MW of monomer: 3002 Da; MW of polymer: 9.1 kDa; Oligomeric state: 3 (trimer) | gBH1: MW of monomer: 3303 Da; MW of polymer: 10.7 kDa; Oligomeric state: 3 (trimer)
The purified cleaved peptides were loaded onto the Superdex G75 column in a solution buffer of 20 mM Tris-HCl, pH 8.0. The peak molecular mass was estimated by comparison with protein standards running on the same column. The peak fractions were collected and analysed by 15% SDS-PAGE. The analytical column was calibrated using a series of individual runs of standard molecular mass proteins as markers including bovine serum albumin (68 kDa), egg white albumin (43 kDa), […] (13.7 kDa), aprotinin (6.5 kDa), antimicrobial peptides (5 kDa), and vitamin B12 (1.4 kDa).

MDV [2] = type: cell-based, Marek's disease virus (MDV) strain RB1B
MDV [3] = tested on: MDV; design: species or system Marek's disease virus (MDV) strain RB1B; details: in vivo

| Compound | MW of polymer (GF peak molecular mass) [1] [kDa] | Oligomeric state [1] | plaque formation (MDV [2]) | lesion formation on CAMs (words) (MDV [3]) | inhibition of plaque formation (MDV [2]) [%] | lesion formation on CAMs (MDV [3]) | plaque formation (result in words) (MDV [2]) |
| --- | --- | --- | --- | --- | --- | --- | --- |
| CC[C@H](C)[C@H](NC(=O)[C@H](C)NC(=O)[C@H](C)NC(=O)[C@H](CCC(=O)O)NC(=O)[C@H](C)NC(=O)[C@H](CCC(=O)O)NC(=O)[C@H](CCCNC(=N)N)NC(=O)[C@H](CCCCN)NC(=O)[C@@H](NC(=O)[C@H](CS)NC(=O)[C@H](CCC(N)=O)NC(=O)CNC(=O)[C@H](CC(C)C)NC(=O)[C@@H](NC(=O)[C@@H](NC(=O)[C@@H](N)CCCNC(=N)N)[C@@H](C)CC)[C@@H](C)CC)[C@@H](C)CC)C(=O)N[C@@H](CCC(=O)O)C(=O)N[C@@H](CCC(N)=O)C(=O)N[C@H](C(=O)N[C@@H](Cc1ccccc1)C(=O)N[C@@H](CCCNC(=N)N)C(=O)N[C@H](C(=O)N[C@@H](CCCCN)C(=O)N[C@@H](Cc1ccc(O)cc1)C(=O)N[C@@H](CC(N)=O)C(=O)N[C@@H](CC(=O)O)C(=O)N[C@@H](CO)C(=O)N[C@@H](Cc1c[nH]cn1)C(=O)O)[C@@H](C)O)[C@@H](C)CC [gBH1] | 10.7 | 3 | ~12% | significantly able to reduce lesion formation |  |  |  |
| CC[C@H](C)[C@H](NC(=O)[C@H](CCC(=O)O)NC(=O)[C@H](CCSC)NC(=O)[C@H](CC(=O)O)NC(=O)[C@H](CO)NC(=O)[C@H](C)NC(=O)[C@H](CC(N)=O)NC(=O)[C@H](CCSC)NC(=O)[C@@H](N)Cc1c[nH]cn1)C(=O)N[C@@H](CCCCN)C(=O)N[C@@H](CO)C(=O)N[C@@H](Cc1ccc(O)cc1)C(=O)N[C@H](C(=O)N[C@@H](CC(N)=O)C(=O)N[C@@H](CCSC)C(=O)N[C@H](C(=O)N[C@@H](CCC(=O)O)C(=O)N[C@@H](CO)C(=O)N[C@H](C(=O)N[C@@H](CCC(=O)O)C(=O)N[C@@H](CCC(=O)O)C(=O)N[C@@H](CO)C(=O)N[C@@H](CO)C(=O)N[C@@H](CC(N)=O)C(=O)N[C@@H](Cc1ccc(O)cc1)C(=O)N[C@@H](CC(=O)O)C(=O)N[C@@H](Cc1ccccc1)C(=O)O)C(C)C)[C@@H](C)CC)[C@@H](C)CC [gHH1] (H-HMNASDMEIKSYINMIESVEESSNYDF-OH; N-terminus and C-terminus assumed) | 12.1 | 4 | completely inhibited | significantly able to reduce lesion formation | 100 | completely inhibited |  |
| CC[C@H](C)[C@H](NC(=O)[C@H](Cc1ccc(O)cc1)NC(=O)CNC(=O)[C@H](CO)NC(=O)[C@H](CCC(N)=O)NC(=O)[C@H](Cc1ccccc1)NC(=O)[C@H](C)NC(=O)[C@H](CC(N)=O)NC(=O)[C@H](CCCNC(=N)N)NC(=O)[C@@H](NC(=O)[C@H](CO)NC(=O)[C@H](C)NC(=O)[C@@H](NC(=O)[C@H](CC(C)C)NC(=O)[C@H](CO)NC(=O)[C@H](CCSC)NC(=O)[C@H](Cc1ccccc1)NC(=O)[C@H](CC(C)C)NC(=O)[C@H](CCCNC(=N)N)NC(=O)[C@@H](NC(=O)[C@@H](NC(=O)[C@@H](NC(=O)[C@@H](N)C(C)C)C(C)C)[C@@H](C)O)[C@@H](C)O)C(C)C)C(C)C)C(=O)N[C@@H](CO)C(=O)N[C@@H](Cc1ccccc1)C(=O)N[C@@H](CC(=O)O)C(=O)N[C@@H](CCC(=O)O)C(=O)N[C@H](C(=O)N[C@H](C(=O)N[C@@H](CCCCN)C(=O)N[C@H](C(=O)N[C@@H](CCC(=O)O)C(=O)O)[C@@H](C)O)[C@@H](C)CC)[C@@H](C)CC [gHH2] (H-VVTTRLFMSLVASVRNAFQSGYISFDEIIKTE-OH; N-terminus and C-terminus assumed) | 7.2 | 2 |  | significantly able to reduce lesion formation |  |  | completely inhibited |
| CC[C@H](C)[C@H](NC(=O)[C@H](CO)NC(=O)[C@H](CC(C)C)NC(=O)[C@H](CO)NC(=O)[C@H](C)NC(=O)[C@@H](NC(=O)[C@H](CC(N)=O)NC(=O)[C@H](CCCCN)NC(=O)[C@H](CO)NC(=O)[C@H](C)NC(=O)[C@H](CC(N)=O)NC(=O)[C@@H](NC(=O)[C@@H](NC(=O)[C@@H](NC(=O)[C@H](CCCCN)NC(=O)[C@H](CCCNC(=N)N)NC(=O)[C@@H](NC(=O)[C@H](CC(C)C)NC(=O)[C@H](CO)NC(=O)[C@H](CCCCN)NC(=O)[C@@H](NC(=O)[C@@H](NC(=O)[C@H](CC(=O)O)NC(=O)[C@H](C)NC(=O)[C@@H](N)CC(N)=O)[C@@H](C)CC)[C@@H](C)CC)[C@@H](C)CC)[C@@H](C)O)[C@@H](C)CC)[C@@H](C)CC)[C@@H](C)O)C(=O)N[C@@H](CC(C)C)C(=O)N[C@@H](CCC(N)=O)C(=O)N[C@@H](Cc1c[nH]cn1)C(=O)N[C@@H](CC(C)C)C(=O)N[C@@H](Cc1ccc(O)cc1)C(=O)N[C@H](C(=O)N[C@@H](CC(C)C)C(=O)N[C@@H](CCCNC(=N)N)C(=O)N[C@@H](CO)C(=O)O)C(C)C [gHH3] (H-NADIIKSLIRKTIINASKNTASLSILQHLYVLRS-OH; N-terminus and C-terminus assumed) | 3.8 | 1 | ~20% | significantly able to reduce lesion formation |  |  |  |
| CC[C@H](C)[C@H](NC(=O)[C@H](CCCCN)NC(=O)[C@@H](NC(=O)[C@H](Cc1ccc(O)cc1)NC(=O)[C@H](CCSC)NC(=O)[C@H](CCC(=O)O)NC(=O)[C@H](CCC(N)=O)NC(=O)[C@@H](NC(=O)[C@@H](NC(=O)[C@H](CC(C)C)NC(=O)[C@H](CCC(=O)O)NC(=O)[C@@H](NC(=O)[C@H](C)NC(=O)[C@@H](NC(=O)[C@@H](NC(=O)[C@H](Cc1c[nH]cn1)NC(=O)[C@H](CCC(=O)O)NC(=O)[C@H](CCC(=O)O)NC(=O)[C@@H](NC(=O)[C@@H](N)CS)[C@@H](C)O)[C@@H](C)CC)C(C)C)[C@@H](C)O)C(C)C)[C@@H](C)CC)[C@@H](C)CC)C(=O)N[C@@H](CC(N)=O)C(=O)N[C@H](C(=O)N[C@@H](CCCCN)C(=O)N[C@@H](CC(N)=O)C(=O)N[C@@H](CO)C(=O)N1CCC[C@H]1C(=O)O)C(C)C [gHH5] (H-CTEEHIVATELVIQEMYIKINVKNSP-OH; N-terminus and C-terminus assumed) | 9.1 | 3 | ~13% | significantly able to reduce lesion formation |  |  |  |
